Experimental findings from PubChem BioAssay AID652 (University of Pittsburgh Molecular Library Screening Center, 2007) are described below.

The source made the active and inactive calls. No rule for the calls is given here. Where only a bound is given, the exact number is not on record here.

In one test the target is Gag-Pol polyprotein (Human immunodeficiency virus type 1 group M subtype B (isolate HXB2)) (UniProt P04585). The test is described as follows: concentration-response of HIV-1 RNase H blockers – biochemical, probe assessment, dose response (AID 652). Conditions: HIV-1 RT RNase H enzymatic assay.
For orientation: IC50 means the concentration needed to halve the response being measured. Turning to `O=c1/c(=C/c2ccccn2)sc2nc3ccccc3n12`, the IC50 is 14.6 µM.
On the same count and under the same terms, the value for `CCOc1cccc(C=Nc2cc(C)cc(C)c2O)c1O` was > 50 µM (inactive); that for `S=C(c1ccc(Cl)cc1)N1CCOCC1` was 4.01 µM.
On the same count and under the same terms, the value for `CC(C)Sc1nc(-c2cccs2)nc2c1c(=O)n(C)c(=O)n2C` was 5.42 µM; that for `O=C(CSc1nc2c([nH]c3ccccc32)c(=O)n1-c1cccc(Cl)c1)N1CCOCC1` was 23.4 µM; that for `O=S(=O)(/N=S1/CC=CCN1S(=O)(=O)c1ccccc1)c1ccccc1` (stereo not drawn) was 4.33 µM.
Turning to `N#Cc1c(-c2cccnc2)c2c([nH]c1=S)CCCC2`, the half-maximal inhibitory concentration (IC50) was 10.2 µM.

Still in this test, the particulars now being: HIV-1 RT RNase H enzymatic assay, inhibition, at 50 µM, stronger effect = higher value.
A word on the inhibition: it is the relative decrease from the control value, in per cent. As for `COc1ccc(C2C(C(C)=O)=C(C)N=c3s/c(=C/c4ccc5c(c4)OCO5)c(=O)n32)cc1` (stereo not drawn), the inhibition amounted to 82.2%.
Still for that read-out and setting: the value for `CCOC(=O)N(c1ccccc1)P1(=S)OCCO1` was 85.5%.
With `CCCc1cc(C(=O)Nc2sc(C)c(C)c2C(=O)OCC)no1`, the inhibition was determined as 98%.
Still for that read-out and setting: the value for `CCOc1ccccc1N1CSC2=C(C#N)C(c3c(OC)ccc4ccccc34)CC(=O)N2C1` (stereo not drawn) was 92%; that for `COc1ccccc1N=c1oc2c(OC)cccc2cc1C(=O)NCc1ccco1` was 94.1%.
The same measure, in the same setting: the value for `Cc1cc(C)c2c(=O)n(CC(=O)N3CCC(N4CCCCC4)CC3)sc2n1` was 60.1%; that for `O=c1/c(=C/c2ccccn2)sc2nc3ccccc3n12` was 89.2%.
As to `CC(C)CN(C(=O)COC(=O)c1ccc2c(c1)NC(=O)CS2)C1CCS(=O)(=O)C1` (stereo not drawn), the inhibition stood at 55.8%.
Consider `CN(c1ccccc1)c1ccc(/C=c2\s/c(=C(/C#N)C(=O)C(C)(C)C)n(Cc3ccco3)c2=O)cc1`, for which the inhibition amounted to 92.9%.
Consider `CCn1cc(C(=O)NCc2ccco2)c(=O)c2cc(S(=O)(=O)N3CCc4ccccc4C3)ccc21`, for which the inhibition was 76.8%.
On the same count and under the same terms, the value for `Cc1ccc(-n2sc3ccccc3c2=O)cc1S(=O)(=O)N1CCCCC1` was 96.9%; that for `CCOc1cccc(C=Nc2cc(C)cc(C)c2O)c1O` was 20.5%; that for `COc1cccc(-c2nnc(NC(=O)c3ccc(S(=O)(=O)N(CC(C)C)CC(C)C)cc3)o2)c1` was 84.4%.
The same measure, in the same setting: the value for `O=c1c2ccccc2sn1-c1cc(S(=O)(=O)N2CCOCC2)ccc1N1CCOCC1` was 84.4%; that for `S=C(c1ccc(Cl)cc1)N1CCOCC1` was 73.5%; that for `O=c1cc(CN2CCN(c3ccccc3)CC2)c2cc(O)c(-c3ccccc3)cc2o1` was 96.1%.
With `CCCSc1nc2c(cnn2-c2ccc(Cl)cc2)c(=O)[nH]1`, the inhibition was found to be 92.8%.
Take `CCCCCn1c(=O)c(C(=O)NCc2ccncc2)c(O)c2ccccc21`: the inhibition was 96%.
For `CCC1CC2(C)NC(=O)c3c(sc4c3CC(C)(C)OC4)N2C1=O` (stereo not drawn), the inhibition was found to be 82.8%.
Turning to `CCOC(=O)c1c(N)sc2c1CCC1C(=O)N(C3CCCCC3)C(=O)C21` (stereo not drawn), the inhibition stood at 96.1%.
For `c1ccc2c(c1)ncn2Cc1nnc2sc(-c3ccc4c(c3)OCO4)nn12`, the inhibition is 93%.
On to `COc1cc(N=c2ssnc2Cl)cc(OC)c1OC`, for which the inhibition amounted to 78.8%.
The same measure, in the same setting: the value for `CCOC(=O)N1CCc2c(sc3c2C(=O)NC(c2ccc(-c4ccc(Cl)cc4)o2)N3)C1` (stereo not drawn) was 94.3%; that for `CC(C)Sc1nc(-c2cccs2)nc2c1c(=O)n(C)c(=O)n2C` was 98.9%; that for `COC(=O)c1ccccc1NC(=O)c1ccc2c(c1)C(=O)N(Cc1ccco1)C2=O` was 93.3%.
`O=C(O)c1cc(S(=O)(=O)Nc2ccc3oc(=O)sc3c2)ccc1O`: the inhibition was determined as 88.2%.
Still for that read-out and setting: in the case of `COC(=O)c1ccc2c(=O)n(Cc3ccco3)c(SCC(=O)Nc3ccccc3Cl)nc2c1` it was 92.2%; in that of `Cc1ccccc1NC(=O)c1c(O)c2cccc3c2n(c1=O)CC3`, 84.6%.
On to `CCCCCCNC(=O)c1c(N)n(/N=C/c2ccco2)c2nc3ccccc3nc12`, for which the inhibition was 98.3%.
For `COc1cc(-c2nn3c(Cc4ccccc4)nnc3s2)cc(OC)c1OC`, the inhibition came to 86%.
On the same count and under the same terms, the value for `Cc1cc(NC(=O)CSc2nc3cc4c(cc3c(=O)n2CCc2ccccc2)OCO4)no1` was 76.9%; that for `COc1ccc(CC(=O)Nc2ccc(-c3noc(-c4cccc(OC)c4)n3)cc2)cc1` was 85.5%.
For `CC(C)OC(=O)CSc1nnc(-c2ccc(C(C)(C)C)cc2)n1N`, the inhibition worked out at 59.5%.
As to `Cc1ccc(NC(=O)Cn2nnc(C(=O)Nc3ccc(C)c(C)c3)c2N)cc1`, the inhibition was found to be 76.8%.
`S=c1nc(C2CC2)[nH]c2ccccc12`: the inhibition was determined as 97.1%.
Take `CCOC(=O)C(C(C)=O)c1c(Br)c(O)c(O)c2c(C(=O)c3ccc(C)cc3)coc12` (stereo not drawn): the inhibition was found to be 86.7%.
On the same count and under the same terms, the value for `COc1cccc(OC)c1-c1nn2c(-c3cc(-c4ccccc4)n[nH]3)nnc2s1` was 63.5%; that for `Cc1ccc(-c2cc(C(F)F)n3ncc(C(=O)NCc4ccco4)c3n2)cc1` was 93%; that for `N#Cc1c(NC(=O)c2ccc(Cn3cc(Br)cn3)o2)sc2c1CCCCCC2` was 98%.
With `c1ccc(Cc2nn3c(Cn4nnc5ccccc54)nnc3s2)cc1`, the inhibition came out at 96.1%.
Same read-out and setting: the value for `O=C(CSc1nc2c([nH]c3ccccc32)c(=O)n1-c1cccc(Cl)c1)N1CCOCC1` was 82.5%; that for `Cc1noc(C)c1CSc1nc2cc(S(=O)(=O)N3CCOCC3)ccc2o1` was 88.3%.
The same measure, in the same setting: the value for `COc1ccc(N2CSC3=C(C#N)C(c4ccc(OC)c(OC)c4)CC(=O)N3C2)c(OC)c1` (stereo not drawn) was 79.7%; that for `COc1ccc(OC)c(/C=N/c2oc(-c3ccco3)c(-c3ccco3)c2C#N)c1` was 89.5%; that for `C=CCn1c(=O)c(C(=O)Nc2nnc(C)s2)c(O)c2ccccc21` was 84.5%.
For `O=S(=O)(/N=S1/CC=CCN1S(=O)(=O)c1ccccc1)c1ccccc1` (stereo not drawn), the inhibition is 69%.
`O=C(O)c1ccc2c(c1)NC(=O)C(N1CCCC1)S2` (stereo not drawn): the inhibition was found to be 75.8%.
For `CCOC(=O)C1CCCN(C(=O)Cn2sc3nc(C)cc(C)c3c2=O)C1` (stereo not drawn), the inhibition stood at 69.6%.
Same read-out and setting: the value for `Fc1ccc(-c2ccc(-c3nn4c(-c5ccco5)nnc4s3)o2)cc1` was 88%; that for `Cc1cc(C)c(C#N)c(=N)o1` was 83%.
Still for that read-out and setting: the value for `COC(=O)c1ccccc1NC(=O)c1sc(=S)n(C)c1N` was 101%.
Same read-out and setting: the value for `COC(=O)c1ccc2c(c1)N(Cc1nc(-c3cccc(C)c3)oc1C)C(=O)C1CCCN21` (stereo not drawn) was 78.1%; that for `Cc1ccc2c(c1C)NC(C(=O)O)C1CC=CC21` (stereo not drawn) was 96.5%.
On to `Nc1ccc(-c2nnc(-c3ccc(-c4ccccc4)cc3)o2)cc1`, for which the inhibition turned out to be 101%.
The same measure, in the same setting: the value for `COc1ccc(N2CCN(Cc3cc(=O)oc4cc(C)c(Cl)c(C)c34)CC2)cc1` was 96%; that for `O=C(CSc1nnnn1-c1ccccc1)Nc1nsc(-c2ccc(Cl)cc2)n1` was 48.8%; that for `CC(C)c1nc2sc3c(SCC(=O)NCc4ccco4)ncnc3c2c2c1CCC2` was 94.1%.
Turning to `C=CCSc1nc2c(c(=O)[nH]c(=O)n2C)n1C(C)C`, the inhibition came out at 60.6%.
Same read-out and setting: in the case of `CCn1c(SCC(=O)c2ccc(O)c(O)c2)nnc1-c1ccccc1OC` it was 98.4%; in that of `O=C(Nc1nc(-c2ccncc2)cs1)c1ccco1`, 87.1%.
Same read-out and setting: the value for `CCOc1cc(C2CC(=O)N3CN(C4CCCCC4)CSC3=C2C#N)ccc1O` (stereo not drawn) was 85.6%; that for `c1ccc(Cc2nnc3sc(-c4ccncc4)nn23)cc1` was 80.4%; that for `C=CCOc1ccc(CC2C(=O)N(C)C(=O)N(C)C2=O)cc1` was 101%.
Consider `N#Cc1c(-c2cccnc2)c2c([nH]c1=S)CCCC2`, for which the inhibition came to 77.9%.
On the same count and under the same terms, in the case of `O=C(NC1CCS(=O)(=O)C1)c1c(NC(=O)C2COc3ccccc3O2)sc2c1CCCC2` (stereo not drawn) it was 88.4%.
On the same count and under the same terms, the value for `CCOC(=O)c1c(C2COc3ccccc3O2)csc1NC(=O)c1ccco1` (stereo not drawn) was 96.6%.
